The compounds below were run on HBV rcDNA (assay: HepDE19 assay with bDNA quantitation of HBV rcDNA). Details: HepDE19 assay, inhibition of formation of rcDNA; read-out: DE-19bDNA EC50.
Format: cell-based, hepatitis B virus
Procedure, shortened: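 HepDE19 cells (HepG2-derived, Tet-regulated HBV replication) were deprived of tetracycline and then exposed to compounds for 7 days at 37 °C in 0.5% DMSO, 8-point titration from 25 μM. rcDNA was quantified by bDNA and EC50/EC90 came from 4-parameter fits. CC50 was measured by CellTiter-Glo ATP content on replicate plates after 4 days.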

SMILES	EC50 [µM]
CCN(C(=O)Nc1ccc(F)c(Cl)c1)C(C)c1c[nH]c(=O)c2cnccc12 (single isomer, unassigned) [Compound 152, 3-(3-Chloro-4-fluorophenyl)-1-ethyl-1-(1-(1-oxo-1,2-dihydro-2,7-naphthyridin-4-yl)ethyl)urea]	0.15
CC(c1cnc(N)c2ccccc12)N(C)C(=O)Nc1ccc(F)c(Cl)c1 (single isomer, unassigned) [Compound 239, 1-(1-(1-Aminoisoquinolin-4-yl)ethyl)-3-(3-chloro-4-fluorophenyl)-1-methylurea]	0.21
CC(c1cnc(OCc2nc[nH]n2)c2ccccc12)N(CCCO)C(=O)Nc1ccc(F)c(Cl)c1 (single isomer, unassigned) [Compound 259, 1-(1-(1-((1H-1,2,4-Triazol-3-yl)methoxy)isoquinolin-4-yl)ethyl)-3-(3-chloro-4-fluorophenyl)-1-(3-hydroxypropyl)urea]	2.1
COCCOCCN(C(=O)Nc1ccc(F)c(Cl)c1)C(C)c1cnc(OC)c2ccccc12 (single isomer, unassigned) [Compound 121, 3-(3-Chloro-4-fluorophenyl)-1-(2-(2-methoxyethoxy)ethyl)-1-(1-(1-methoxyisoquinolin-4-yl)ethyl)urea]	23
CC(c1c[nH]c(=O)c2ccc(F)cc12)N(C)C(=O)Nc1ccc(F)c(Cl)c1 (single isomer, unassigned) [Compound 170, 3-(3-Chloro-4-fluorophenyl)-1-(1-(6-fluoro-1-oxo-1,2-dihydroisoquinolin-4-yl)ethyl)-1-methylurea]	0.03
COc1ccc2c(C(C)N(C)C(=O)Nc3ccc(F)c(Cl)c3)c[nH]c(=O)c2c1 (single isomer, unassigned) [Compound 177, 3-(3-Chloro-4-fluorophenyl)-1-(1-(7-methoxy-1-oxo-1,2-dihydroisoquinolin-4-yl)ethyl)-1-methylurea]	2.2
COc1ccc2c(C(C)N(C)C(=O)Nc3ccc(F)c(Cl)c3)c[nH]c(=O)c2c1 (single isomer, unassigned) [Compound 178, 3-(3-Chloro-4-fluorophenyl)-1-(1-(7-methoxy-1-oxo-1,2-dihydroisoquinolin-4-yl)ethyl)-1-methylurea]	0.17
CC(c1c[nH]c(=O)c2ccccc12)N(CC1CCOCC1)C(=O)Nc1ccc(F)c(Cl)c1 (single isomer, unassigned) [Compound 141, 3-(3-Chloro-4-fluorophenyl)-1-(1-(1-oxo-1,2-dihydroisoquinolin-4-yl)ethyl)-1-((tetrahydro-2H-pyran-4-yl)methyl)urea]	3.4
CC(c1c[nH]c(=O)c2ccccc12)N(CC1CCCCC1)C(=O)Nc1ccc(F)c(Cl)c1 (single isomer, unassigned) [Compound 194, 3-(3-Chloro-4-fluorophenyl)-1-(cyclohexylmethyl)-1-(1-(1-oxo-1,2-dihydroisoquinolin-4-yl)ethyl)urea]	0.95

Same assay, conditions: HepDE19 assay, inhibition of formation of relaxed circular DNA (rcDNA), bDNA quantitation; read-out: DE-19bDNA EC50

SMILES	EC50 [µM]
CC(c1c[nH]c(=O)c2c(F)c(F)ccc12)N(C)C(=O)Nc1cccc(F)c1F (single isomer, unassigned) [Compound 458, 1-(1-(7,8-Difluoro-1-oxo-1,2-dihydroisoquinolin-4-yl)ethyl)-3-(2,3-difluorophenyl)-1-methylurea]	14
Cc1ncc(C(C)N(C)C(=O)Nc2ccc(F)c(Cl)c2)c2ccccc12 (single isomer, unassigned) [Compound 352, 3-(3-Chloro-4-fluorophenyl)-1-methyl-1-(1-(1-methylisoquinolin-4-yl)ethyl)urea]	9.9
CC(c1c[nH]c(=O)c2cc(F)c(F)cc12)N(C)C(=O)Nc1ccc(F)c(C#N)c1 (single isomer, unassigned) [Compound 429, 3-(3-Cyano-4-fluorophenyl)-1-(1-(6,7-difluoro-1-oxo-1,2-dihydroisoquinolin-4-yl)ethyl)-1-methylurea]	0.01
CC(c1c[nH]c(=O)c2c(F)c(F)ccc12)N(C)C(=O)Nc1ccc(F)c(F)c1 (single isomer, unassigned) [Compound 435, 1-(1-(7,8-Difluoro-1-oxo-1,2-dihydroisoquinolin-4-yl)ethyl)-3-(3,4-difluorophenyl)-1-methylurea]	0.24
CC(c1cn(C)c(=O)c2c(F)cccc12)N(C)C(=O)Nc1ccc(F)c(Cl)c1 (single isomer, unassigned) [Compound 359, 3-(3-Chloro-4-fluorophenyl)-1-(1-(8-fluoro-2-methyl-1-oxo-1,2-dihydroisoquinolin-4-yl)ethyl)-1-methylurea]	0.023
CC(c1c[nH]c(=O)c2c(F)cc(F)cc12)N(C)C(=O)Nc1ccc(F)c(Cl)c1 (single isomer, unassigned) [Compound 369, 3-(3-Chloro-4-fluorophenyl)-1-(1-(6,8-difluoro-1-oxo-1,2-dihydroisoquinolin-4-yl)ethyl)-1-methylurea]	0.019
CC(c1c[nH]c(=O)c2cc(F)ccc12)N(CCS(N)(=O)=O)C(=O)Nc1ccc(F)c(Cl)c1 (single isomer, unassigned) [Compound 383, 2-(3-(3-Chloro-4-fluorophenyl)-1-(1-(7-fluoro-1-oxo-1,2-dihydroisoquinolin-4-yl)ethyl)ureido) ethane-1-sulfonamide]	7
Cc1cc(NC(=O)N(C)C(C)c2c[nH]c(=O)c3cc(F)c(F)cc23)ccc1F (single isomer, unassigned) [Compound 426, 1-(1-(6,7-Difluoro-1-oxo-1,2-dihydroisoquinolin-4-yl)ethyl)-3-(4-fluoro-3-methylphenyl)-1-methylurea]	0.11
CC(c1c[nH]c(=O)c2ccc(F)cc12)N(CCS(N)(=O)=O)C(=O)Nc1ccc(F)c(Cl)c1 (single isomer, unassigned) [Compound 382, 2-(3-(3-Chloro-4-fluorophenyl)-1-(1-(6-fluoro-1-oxo-1,2-dihydroisoquinolin-4-yl)ethyl)ureido) ethane-1-sulfonamide]	0.016
CC(c1cnc(OCc2nc[nH]n2)c2cc(F)c(F)cc12)N(C)C(=O)Nc1ccc(F)c(Cl)c1 (single isomer, unassigned) [Compound 362, 1-(1-(1-((1H-1,2,4-Triazol-3-yl)methoxy)-6,7-difluoroisoquinolin-4-yl)ethyl)-3-(3-chloro-4-fluorophenyl)-1-methylurea]	0.89

Same assay, conditions: Hepatitis B virus, HepDE19, HepDE19 assay, inhibition of formation of rcDNA; read-out: DE-19bDNA EC50

SMILES	EC50 [µM]
COc1ncc([C@@H](C)N(CC(F)(F)F)C(=O)Nc2ccc(F)c(Cl)c2)c2ccccc12 [Compound 101, (R)-3-(3-Chloro-4-fluorophenyl)-1-(1-(1-methoxyisoquinolin-4-yl)ethyl)-1-(2,2,2-trifluoroethyl)urea]	0.42
CC(c1c[nH]c(=O)c2cnccc12)N(CCCO)C(=O)Nc1ccc(F)c(Cl)c1 (stereo not drawn) [Compound 159, 3-(3-Chloro-4-fluorophenyl)-1-(3-hydroxypropyl)-1-(1-(1-oxo-1,2-dihydro-2,7-naphthyridin-4-yl)ethyl)urea]	0.1
CC(c1c[nH]c(=O)c2cc(Cl)ccc12)N(C)C(=O)Nc1ccc(F)c(Cl)c1 (racemic) [Compound 271, 1-(1-(7-Chloro-1-oxo-1,2-dihydroisoquinolin-4-yl)ethyl)-3-(3-chloro-4-fluorophenyl)-1-methylurea]	0.2
CC(c1c[nH]c(=O)c2cnccc12)N(C)C(=O)Nc1ccc(F)c(Cl)c1 (stereo not drawn) [Compound 111, 3-(3-Chloro-4-fluorophenyl)-1-methyl-1-(1-(1-oxo-1,2-dihydro-2,7-naphthyridin-4-yl)ethyl)urea]	0.25
CC(NC(=O)Nc1ccc(F)c(Cl)c1)c1c[nH]c(=O)c2ccccc12 (single isomer, unassigned) [Compound 10, 1-(3-Chloro-4-fluorophenyl)-3-(1-(1-oxo-1,2-dihydroisoquinolin-4-yl)ethyl)urea]	3.4

Same assay, conditions: Hepatitis B virus, HepDE19, read-out: DE-19bDNA EC50 (μM), HepDE19 assay, inhibition of formation of relaxed circular DNA (rcDNA), bDNA quantitation

SMILES	EC50 [µM]
CC(c1c[nH]c(=O)c2c(F)c(F)ccc12)N(C)C(=O)NCc1ccccc1 (single isomer, unassigned) [Compound 453, 3-Benzyl-1-(1-(7,8-difluoro-1-oxo-1,2-dihydroisoquinolin-4-yl)ethyl)-1-methylurea]	0.29
CC(c1c[nH]c(=O)c2c(F)c(F)ccc12)N(C)C(=O)Nc1cccnc1 (single isomer, unassigned) [Compound 450, 1-(1-(7,8-Difluoro-1-oxo-1,2-dihydroisoquinolin-4-yl)ethyl)-1-methyl-3-(pyridin-3-yl)urea]	5.4

Same assay, conditions: read-out: DE-19bDNA EC50; HepDE19 assay, inhibition of formation of rcDNA

SMILES	EC50 [µM]
CC(c1c[nH]c(=O)c2ccccc12)N(CCCO)C(=O)Nc1ccc(F)c(Cl)c1 (single isomer, unassigned) [Compound 131, 3-(3-Chloro-4-fluorophenyl)-1-(3-hydroxypropyl)-1-(1-(1-oxo-1,2-dihydroisoquinolin-4-yl)ethyl)urea]	0.01
COCCN(C(=O)Nc1ccc(F)c(Cl)c1)C(C)c1c[nH]c(=O)c2ccccc12 (single isomer, unassigned) [Compound 65, 3-(3-Chloro-4-fluorophenyl)-1-(2-methoxyethyl)-1-(1-(1-oxo-1,2-dihydroisoquinolin-4-yl)ethyl)urea]	10
CC(c1c[nH]c(=O)c2cc(F)c(F)cc12)N(C)C(=O)Nc1ccc(F)c(Cl)c1 (single isomer, unassigned) [Compound 279, 3-(3-Chloro-4-fluorophenyl)-1-(1-(6,7-difluoro-1-oxo-1,2-dihydroisoquinolin-4-yl)ethyl)-1-methylurea]	0.007

Same assay, conditions: read-out: DE-19bDNA EC50; HepDE19 assay, inhibition of formation of relaxed circular DNA (rcDNA), bDNA quantitation

SMILES	EC50 [µM]
CC(c1c[nH]c(=O)c2c(F)c(F)ccc12)N(C)C(=O)Nc1cccc(F)c1 (single isomer, unassigned) [Compound 456, 1-(1-(7,8-Difluoro-1-oxo-1,2-dihydroisoquinolin-4-yl)ethyl)-3-(3-fluorophenyl)-1-methylurea]	0.051

— patent publication US20230045421A1 (priority 2018, published 2023)
